{"source": "patent US20160317561A1", "about": "“USE OF D-RIBOSE FOR FATIGUED SUBJECTS” (Bioenergy Life Science, Inc., priority 2008, published 2016)", "assay_type_in_all_cases": "in vivo, human", "key": {"[1]": {"experiment": "Sub-maximal cardiopulmonary exercise (CPX) treadmill testing in fatigued aging subjects", "conditions": "for Hr to METS ratio at AT, mean change / Net Energy Expenditure at AT, mean change / O2 Uptake Slope, mean change / VE Slope, mean change / VO2 at AT, mean change: 3.0 g D-ribose bid orally", "protocol": "The pilot study was performed enrolling 20 aging subjects, greater than 45 years of age, who were self-perceived as fatigued and tired as their customary daily state for at least one month, with no strenuous exercise or physical labor to account for the fatigue. No subjects had documented histories of heart/lung or metabolism/endocrine disease, as set out more fully below in the inclusion criteria. The causes of fatigue in aging subjects is unknown. It can be hypothesized that the causes are mental, since lowered cognition and feeling of wellbeing is also common in aging persons. The aforementioned studies of unhealthy persons or persons exercising strenuously found a dose of five to eight grams of D-ribose, taken two to four times per day was recommended to raise or maintain ATP levels. Lower amounts such as in this study, were not found adequate for those subjects. For the healthy, but sedentary and aging subjects for this study, it was expected that they were already at an optimum ATP level. Two doses of oral D-ribose at 1.5 grams or 3.0 grams bid were selected to test the hypothesis that raising ATP levels with D-ribose could have some benefit in improving fatigue. Each subject consumed the oral D-ribose for two weeks, dissolved in a small amount of water. Study assessments were done at baseline, and at one and two weeks during the trial. The lower dose study was continued an additional two weeks. The subjective and objective assessment parameters included: sub-maximal exercise performance, resting and sub-maximal energy expenditure, the SF-36 Quality of Life Assessment and a subjective questionnaire for evaluating fatigue.\nEnergy expenditure was calculated both at rest (BMR) and also at the anaerobic threshold (AT) using standard formulae incorporated into CPX-based software. Net energy expenditure was determined by subtracting resting values from those calculated at the subject's AT. In addition, the completed activity log was used to determine potential changes in cumulative (daily and weekly) energy expenditure throughout the first and second weeks while on D-ribose. Further, work efficiency was determined by calculating the reciprocal of aerobic power or the VO2 to WR ratio, as computed at the anaerobic threshold.\nThe formula for calculation of energy expenditure at the anaerobic threshold was based, in part, on the actual measured resting energy expenditure (RER) and VO2 at that level of exercise, knowing that a subject can sustain a steady state at the initial phase of the AT, which represents a particular phase of exercise whereby energy metabolism due to an increase in oxygen consumption resulting in a reduction in tissue oxygen perfusion shifts to an anaerobic instead of an oxidative phosphorylation. The AT interval varies from person to person depending on physical condition or training. Individuals who are not trained and relatively deconditioned have a low AT, as compared to elite endurance athletes having a high AT. At the AT, fuel mix for skeletal muscle metabolism is somewhat balanced. This point occurs in the range between 40% to 60% of the maximum VO2 attained. For example, assuming that equal amounts of fats and carbohydrates are oxidized at an RER of 0.85 just prior to AT onset, energy expenditure can be calculated using the formula VO2(L/min)×4.862 kcal/min for each liter of oxygen consumed. Likewise, if an individual was at an RER of 0.89 under steady state conditions, their absolute VO2 in L/min would be multiplied by a factor of 4.911. Net energy expenditure would be calculated subtracting the subject's resting energy expenditure (REE) or BMR. METS or net metabolic equivalents was also used to express the subject's activity level at their AT.\nFor this study, a ramping incremental treadmill exercise protocol was followed. […] The treadmill exercise was increased from 0 mph to 3.0 mph and the elevation increased from 0 to 12%, over the test time of six minutes. […]"}, "[2]": {"experiment": "SF-36 Quality of Life Questionnaire in fatigued aging subjects", "from_the_text": "The SF-36 Quality of Life Questionnaire was also used. Subjects were asked to fill out a questionnaire on the normal activities that they participated in. An example of the SF-36 Quality of Life Questionnaire is presented in Appendix A. These activities included household chores, walking, yard work and whether the subject routinely climbed stairs. Additionally, subjects were asked how many days in the past week they felt good; missed work or routine chores because of fatigue; how tired they felt and their state on awakening in the morning. In order to understand what the self-perception of fatigue (described as fatigue, tiredness or loss of vitality) indicates, it is helpful to look at the questions asked in SF-36 Quality of Life questionnaire (Appendix A). The SF-36 questionnaire is applied particularly to evaluating physician-prescribed therapies, but the gender-neutral, generic, coherent and easily administered questions are useful to evaluate any discrete cohort of subjects in the categories desired. […] The first three categories as listed are directed to the subject's self-perceived status. The remaining categories are directed to the extent that status (whatever that status may be), affects the subject's functioning roles in several categories."}, "[3]": {"experiment": "Fatigue questionnaire / Visual Analog Scale (VAS) for fatigue in fatigued aging subjects", "conditions": "for Fatigue questionnaire: lower dose (1.5 g bid)", "protocol": "Subjects were monitored at baseline and during the two week treatment period for their perceived fatigue activity levels. Subjects were asked to rate on a ten point scale (1=near dead to 10=excellent) the following questions: How is your energy? (1=no energy, 10=excellent); How do you sleep? (1=no sleep, 10=8 hours without waking); How is your mental clarity? (1=“brain fog”, 10=good clarity); How bad is your pain?; How is your overall sense of well being? At weeks one and two, subjects were also asked to describe their overall rating of symptoms of fatigue as compared to their symptoms at baseline. The five point scale was; much better, somewhat better; no change; somewhat worse and much worse. The investigators selected end-points of some assessments to determine whether the subjects remained the same or improved at one and two weeks. The results were represented in a Visual Analog Scale (VAS) for fatigue. Nine subjects completed the VAS forms of subjective estimate of tiredness (Appendix B) on a scale of 1 (completely disagree) to 7 (completely agree)."}, "[4]": {"experiment": "Side effects of D-ribose administration in the study subjects", "conditions": "higher (3.0 g bid) or lower (1.5 g bid) doses", "from_the_text": "D-ribose ingestion is known to have the potential to cause gastrointestinal distress, including flatulence and diarrhea, and also can lower blood glucose."}}}
{"smiles": "O=C[C@H](O)[C@H](O)[C@H](O)CO", "note": "[D-ribose]", "values": [{"measurement": "Hr to METS ratio at AT, mean change", "setting": "[1]; Week 1 vs baseline", "result": "−3.00 +/− 2.83"}, {"measurement": "Net Energy Expenditure at AT, mean change", "setting": "[1]; Week 1 vs baseline", "result": "9.32 +/− 7.67"}, {"measurement": "O2 Uptake Slope, mean change", "setting": "[1]; Week 1 vs baseline", "result": "0.17 +/− 0.19"}, {"measurement": "VE Slope, mean change", "setting": "[1]; Week 1 vs baseline", "result": "−2.26 +/− 1.69"}, {"measurement": "VO2 at AT, mean change", "setting": "[1]; Week 1 vs baseline", "result": "1.53 +/− 0.90"}, {"measurement": "Hr to METS ratio at AT, mean change", "setting": "[1]; Week 2 vs baseline", "result": "−3.67 +/− 3.27"}, {"measurement": "Net Energy Expenditure at AT, mean change", "setting": "[1]; Week 2 vs baseline", "result": "16.23 +/− 6.13"}, {"measurement": "O2 Uptake Slope, mean change", "setting": "[1]; Week 2 vs baseline", "result": "0.24 +/− 0.15"}, {"measurement": "VE Slope, mean change", "setting": "[1]; Week 2 vs baseline", "result": "−2.44 +/− 2.24"}, {"measurement": "VO2 at AT, mean change", "setting": "[1]; Week 2 vs baseline", "result": "2.13 +/− 0.78"}, {"measurement": "Increase in resting energy expenditure at the AT onset", "setting": "[1]; 3.0 g bid orally, end of two weeks", "result": 8.2, "unit": "%"}, {"measurement": "Rise in net energy expenditure at the AT onset", "setting": "[1]; 3.0 g bid orally, end of two weeks, p<0.0005", "result": 32, "unit": "%"}, {"measurement": "Increase in VO2 at the AT onset", "setting": "[1]; 3.0 g bid orally, end of two weeks, p<0.001", "result": 18, "unit": "%"}, {"measurement": "Increase in heart rate at the AT onset", "setting": "[1]; 3.0 g bid orally, end of two weeks, p=0.012", "result": 9.2, "unit": "%"}, {"measurement": "Decrease in heart rate to METS ratio", "setting": "[1]; 3.0 g bid orally, two weeks", "result": 11.7, "unit": "%"}, {"measurement": "Decrease in oxygen pulse indexed to inspiratory drive", "setting": "[1]; 3.0 g bid orally, two weeks", "result": 8.9, "unit": "%"}, {"measurement": "Decrease in ventilatory efficiency slope", "setting": "[1]; 3.0 g bid orally, two weeks", "result": 8.5, "unit": "%"}, {"measurement": "Increase in change in oxygen pulse times change in expired CO2 at AT", "setting": "[1]; 3.0 g bid orally, two weeks", "result": 60.8, "unit": "%"}, {"measurement": "Average calorie burned from fat substrate at the AT", "setting": "[1]; 3.0 g bid orally, two weeks, most subjects", "result": "did not change significantly"}, {"measurement": "CPX parameters (objective measures)", "setting": "[1]; lower dose (1.5 g bid), two weeks to four weeks", "result": "positive trend"}, {"measurement": "Response to the SF-36 Questionnaire", "setting": "[2]; lower dose (1.5 g bid), four weeks", "result": "improvement in symptoms of general health, vitality and mental outlook"}, {"measurement": "SF-36 Bodily pain (interference with activities)", "setting": "[2]; results at two weeks", "result": "significant improvement"}, {"measurement": "SF-36 Emotional function role", "setting": "[2]; results at two weeks", "result": "significant improvement"}, {"measurement": "SF-36 Social function role", "setting": "[2]; results at two weeks", "result": "significant improvement"}, {"measurement": "SF-36 Vitality", "setting": "[2]; results at two weeks, initially low at 40th percentile", "result": "significant improvement"}, {"measurement": "SF-36 Physical competence", "setting": "[2]; results at two weeks, initially near normal", "result": "slight improvement"}, {"measurement": "SF-36 General health", "setting": "[2]; results at two weeks, initially normal", "result": "slight improvement"}, {"measurement": "SF-36 Role physical function", "setting": "[2]; results at two weeks, initially slightly subnormal", "result": "significant improvement"}, {"measurement": "Social functionality, emotional wellbeing, mental health and mental competence (questionnaire)", "setting": "[2]; two weeks, mental categories based on additional questions not in SF-36", "result": "increases"}, {"measurement": "Fatigue questionnaire", "setting": "[3]; continued for an additional two weeks (four weeks), FIG. 7", "result": "Continued improvement"}, {"measurement": "Fatigue questionnaire", "setting": "[3]; two weeks", "result": "slight reduction in fatigue"}, {"measurement": "Decrease in self-perceived levels of fatigue (average)", "setting": "[3]; six grams of D-ribose per day (3.0 g bid), two weeks", "result": 50, "unit": "%"}, {"measurement": "Side effects of D-ribose administration", "setting": "[4]", "result": "No subjects in this study, at either the higher or the lower doses, experienced any side effects"}]}
